The text below walks through data of US7835013B2, “Interferometric detection system and method” (Vanderbilt University, priority 2007, dated 2010).

Structures are written as SMILES. pKd: −log10 of the molar value. Read-outs that look alike come from different tables or passages of the source. A value given as a limit tells only on which side of the number the result lay.

For one assay, the target named is Calmodulin (Homo sapiens, UniProt P0DP23). To be noted: read-out: published Kd Calmodulin-calcium ion; cited from earlier work.
Another assay has as its target T1, Calmodulin (CaM) (Homo sapiens, UniProt P0DP23).
T1 construct: purchased Sigma, St. Louis, Mo
Kind of assay: BSI stop-flow label-free homogeneous binding to Calmodulin. To be noted: for pKd: 5 μM CaM, 12.5-100 μM Ca^2+, pH 7.5, 25° C.

As for `[Ca+2]` [Ca^2+], the pKd on Calmodulin is 5.00 to 6.00; at Calmodulin (CaM) (read-out: Kd CaM-Ca^2+ from kinetic analysis (single exponential, least squares)) it was 5.47; on Calmodulin (CaM) (read-out: Kd CaM-Ca^2+ from steady-state values, Prism software), 4.75. On Calmodulin (CaM) (5 μM CaM and 100 μM Ca^2+, both with excess EGTA (400 μM)), the “control: change in signal above that observed in the absence of excess EGTA” value is recorded as under 3%.

As usually defined, the pKd is the negative decadic logarithm of the Kd, by convention in mol/L.
